Experimental data taken from patent US7125900B2, “Inhibitors of 11-β-hydroxy steroid dehydrogenase type 1” (Biovitrum AB, priority 2000, dated 2006).

Experiments:
human 11-β-HSD1 enzyme = molecular target: T1, human 11-β-HSD1 enzyme (Homo sapiens, UniProt P28845); experiment: human 11-β-HSD1 enzyme assay (scintillation proximity assay); type: biochemical; conditions: human 11-β-HSD1 expressed in Pichia pastoris; Ki calculated from IC50 by Cheng-Prusoff
T1 construct: made in house; host or cells: Pichia pastoris
Excerpt: [1, 2(n)—^3H]-cortisone was purchased from Amersham Pharmacia Biotech. Anti-cortisol monoclonal mouse antibody, clone 6D6.7 was obtained from Immunotech and Scintillation proximity assay (SPA) beads coated with monoclonal antimouse antibodies were from Amersham Pharmacia Biotech. NADPH, tetrasodium salt was from Calbiochem and glucose-6-phosphate (G-6-P) was supplied by Sigma. The human 11-β-hydroxysteroid dehydrogenase type-I enzyme (11-β-HSD1) was expressed in Pichia pastoris. 18-β-glycyrrhetinic acid (GA) was obtained from Sigma. The serial dilutions of the compounds were performed on a Tecan Genesis RSP 150. Compounds to be tested were dissolved in DMSO (1 mM) and diluted in 50 mM Tris-HCl, pH 7.2 containing 1 mM EDTA.
The multiplication of plates was done on a WallacQuadra. The amount of the product [^3H]-cortisol, bound to the beads was determined in a Packard, Top Count microplate liquid scintillation counter.
The 11-β-HSD1 enzyme assay was carried out in 96 well microtiter plates (Packard, Optiplate) in a total well volume of 220 μL and contained 30 mM Tris-HCl, pH 7.2 with 1 mM EDTA, a substrate mixture tritiated Cortisone/NADPH (175 nM/181 μM), G-6-P (1 mM) and inhibitors in serial dilutions (9 to 0.15 μM). Reactions were initiated by the addition of human 11-β-HSD1, either as Pichia pastoris cell homogenate or microsomes prepared from Pichia pastoris (the final amount of enzyme used was varied between 0.057 to 0.11 mg/mL). Following mixing, the plates were shaken for 30 to 45 minutes at room temperature. The reactions were terminated with 10 μL 1 mM GA stop solution. Monoclonal mouse antibody was then added (10 μL of 4 μM) followed by 100 μL of SPA beads (suspended according to the manufacturers instructions). Appropriate controls were set up by omitting the 11-β-HSD1 to obtain the non-specific binding (NSB) value.
The plates were covered with plastic film and incubated on a shaker for 30 minutes, at room temperature, before counting. The amount of [^3H]-cortisol, bound to the beads was determined in a microplate liquid scintillation counter.
The calculation of the Ki values for the inhibitors was performed by use of Activity Base. The Ki value is calculated from IC50 and the Km value is calculated using the Cheng Prushoff equation (with reversible inhibition that follows the Michaelis-Menten equation): […] [Cheng, Y. C.; Prushoff, W. H. Biochem. Pharmacol. 1973, 22, 3099-3108]. The IC50 is measured experimentally in an assay wherein the decrease of the turnover of cortisone to cortisol is dependent on the inhibition potential of each substance. […] Illustrative of the invention, the following Ki values have been determined in the human 11-β-HSD1 enzyme assay (see Table 1): […]

bone nodule formation = conditions: cited from earlier work

T1 sequence (P28845 whole entry): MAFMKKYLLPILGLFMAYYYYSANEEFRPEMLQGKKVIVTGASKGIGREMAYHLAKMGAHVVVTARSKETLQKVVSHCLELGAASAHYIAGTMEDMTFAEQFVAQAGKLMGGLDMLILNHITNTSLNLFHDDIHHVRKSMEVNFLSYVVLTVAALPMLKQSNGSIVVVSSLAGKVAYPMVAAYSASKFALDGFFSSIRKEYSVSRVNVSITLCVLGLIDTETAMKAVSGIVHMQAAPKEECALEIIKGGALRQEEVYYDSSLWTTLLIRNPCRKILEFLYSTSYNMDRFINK

SMILES | melting point | Ki (human 11-β-HSD1 enzyme) | negative glucocorticoid effect on bone nodule formation (bone nodule formation)
CCCc1csc(NS(=O)(=O)c2cccc(Cl)c2C)n1 [Example 11, 3-Chloro-2-methyl-N-(4-propyl-1,3-thiazol-2-yl)benzenesulfonamide] | 169 °C |  | 
CC(=O)c1sc(NS(=O)(=O)c2ccc(Oc3cccc(Cl)c3C#N)cc2)nc1C [Example 22, N-(5-acetyl-4-methyl-1,3-thiazol-2-yl)-4-(3-chloro-2-cyanophenoxy)benzenesulfonamide] |  | 108 nM | 
Cc1nc(NS(=O)(=O)c2c(Cl)cc(Cl)cc2Cl)sc1CC(Cl)(Cl)Cl [Example 6, 2,4,6-trichloro-N-[4-methyl-5-(2,2,2-trichloroethyl)-1,3-thiazol-2-yl]benzenesulfonamide] | 228 to 229 °C | 123 nM | 
Cc1csc(NS(=O)(=O)c2cccc(Cl)c2C)n1 [Example 3, 3-Chloro-2-methyl-N-(4-methyl-1,3-thiazol-2-yl)benzenesulfonamide] |  | 122 nM | 
CC1(C)[C@@H](OC(=O)CCC(=O)O)CC[C@]2(C)[C@H]3C(=O)C=C4[C@@H]5C[C@@](C)(C(=O)O)CC[C@]5(C)CC[C@@]4(C)[C@]3(C)CC[C@@H]12 [carbenoxolone] |  |  | blocked
C=Cc1csc(NS(=O)(=O)c2cccc(Cl)c2C)n1 [Example 18, 3-Chloro-2-methyl-N-(4-vinyl-1,3-thiazol-2-yl)benzenesulfonamide] |  | 90 nM | 
Cc1c(Cl)cccc1S(=O)(=O)Nc1nc(C(C)(C)C)cs1 [Example 15, N-(4-Tert-butyl-1,3-thiazol-2-yl)-3-chloro-2-methylbenzenesulfonamide] | 178 °C |  | 
